Measurements reported in US6992072B2, “Combating side-effects” (Pharma Nord ApS, priority 2001, dated 2006).

What was measured:
Format in all cases: cell-based, human
[1] = system: HepG2 cell line; test: Number of HepG2 cells on the day of trypsinization (survival) in the presence of ddC; conditions: ddC 177 nM; for Number of cells on the day of the trypsinization: HepG2, uridine 200 μM or vitamin cocktail where named
Protocol: (§1) Cell culture. The HepG2 cell line, a human hepatoma cell line, is taken from the American Type Culture Collection (ATCC No. HB-8065). It is cultured at 37° C. in a 5% CO2 atmosphere. The culture medium is Dulbecco's Modified Eagle Medium (DMEM-containing 4.5 g/l glucose, 110 mg/l pyruvate, 4 mg/l nicotinamide, 4 mg/l pyridoxal hydrochloride, 4 mg/l thiamine and 0.4 riboflavin), supplemented with 10% fetal bovine serum (50 ml FCS, Mycoplex PAA Laboratories, Linz). On day 1, 2.7×10^6 cells are placed in 75 ml culture flasks (Falcon, Becton Dickinson, USA). On days 5, 10, 15, 20 and 25, the cells are trypsinized and counted; 2.7×10^6 cells are again spread out. The medium is changed on each day of trypsinization and on the third day after replating. Materials: Riboflavin (vitamin B2), thiamine (vitamin B1), ascorbic acid (vitamin C), uridine and ddC are purchased from Sigma (USA). The concentrations of uridine are given in the following tables; ddC is used in a concentration of 177 nM, which corresponds to the steady-state plasma levels of patients under HAART. A vitamin cocktail consisting of 7.125 mg/l riboflavin, 7.125 mg/l thiamine and 142.5 mg/l vitamin C is used. These pharmacological concentrations exceed the daily requirement by a factor of about one hundred, and meet the safe upper limits according to the recommendations of the European Union for these micro-nutrients.

[2] = system: mitochondrial DNA (mtDNA); test: Quantification of mitochondrial DNA by Southern Blot (M/N ratio) in HepG2 cells; conditions: ddC 177 nM; for Content of mitochondrial DNA, M/N-ratio in % of the control: control = HepG2-cells without ddC and without uridine
Protocol: Cell culture. The HepG2 cell line, a human hepatoma cell line, is taken from the American Type Culture Collection (ATCC No. HB-8065). It is cultured at 37° C. in a 5% CO2 atmosphere. The culture medium is Dulbecco's Modified Eagle Medium (DMEM-containing 4.5 g/l glucose, 110 mg/l pyruvate, 4 mg/l nicotinamide, 4 mg/l pyridoxal hydrochloride, 4 mg/l thiamine and 0.4 riboflavin), supplemented with 10% fetal bovine serum (50 ml FCS, Mycoplex PAA Laboratories, Linz). On day 1, 2.7×10^6 cells are placed in 75 ml culture flasks (Falcon, Becton Dickinson, USA). On days 5, 10, 15, 20 and 25, the cells are trypsinized and counted; 2.7×10^6 cells are again spread out. The medium is changed on each day of trypsinization and on the third day after replating. Materials: Riboflavin (vitamin B2), thiamine (vitamin B1), ascorbic acid (vitamin C), uridine and ddC are purchased from Sigma (USA). The concentrations of uridine are given in the following tables; ddC is used in a concentration of 177 nM, which corresponds to the steady-state plasma levels of patients under HAART. A vitamin cocktail consisting of 7.125 mg/l riboflavin, 7.125 mg/l thiamine and 142.5 mg/l vitamin C is used. These pharmacological concentrations exceed the daily requirement by a factor of about one hundred, and meet the safe upper limits according to the recommendations of the European Union for these micro-nutrients. Quantification of mitochondrial DNA (mtDNA) by means of Southern Blot: The content of mtDNA is determined by a well-known Southern-Blot technique (C. T. Moraes et al., “Quantitative Defects of Mitochondrial DNA”, in: S. DiMauro and D. C. Wallace, “Mitochondrial DNA in Human Pathology”, Raven Press, New York 1993, Chapter 8, pages 97–108). Genomic DNA is extracted from the fatty tissue and cut with the restriction endonuclease Pvull. Five μg of the cut material are separated electrophoretically on a 0.8% agarose gel and transferred to a nylon membrane. The mtDNA is tested with a 12.9 kBp mtDNA fragment (which comprises the nucleotide positions 3470 and 16379 of human mtDNA (S. Anderson et al., Nature 9, 457–65 (1981), and which is marked by means stochastically binding primers with digoxigenin). In order to have an internal standard, digoxigen labeled nuclear DNA (nDNA), which hybridizes to the copy-number 18S-ribosomal DNA gene, serves as a second probe. The signals for mtDNA and nDNA are visualized, according to the recommendations of the manufacturer (Boehringer Mannheim, Germany), with a monoclonal antibody against digoxigenin, which is conjugated with alkaline phosphatase. The signal intensities are quantified by computer by means of standard software. The mtDNA content is expressed as the mtDNA/nDNA (M/N) ratio.

[3] = system: HepG2 cell line; test: L-lactate in the culture medium of HepG2 cells, enzymatic test; conditions: ddC 177 nM; for Lactate values in the medium in percent of the control: control without ddC and without uridine, Day 0 = 100%
Protocol: as §1, with “micro-nutrients. Lactic acid: 1.5 ml of the remainder of the culture is removed in each case immediately before the trypsinization and the L-lactate in it is determined enzymatically with the lactate test-kit from Roche Diagnostics (order No.1822837) in an automatic analysis device (Roche/Hitachi 917) according to the recommendations of the manufacturer.” for “micro-nutrients.”

[4] = system: HepG2 cell line; test: Intracellular lipids of HepG2 cells, Oil-Red-O staining
Protocol: as §1, with “The concentrations of uridine are given in the following tables; ddC is used in a concentration of 177 nM, which corresponds to the steady-state plasma levels of patients under HAART.” left out, “micro-nutrients. Determining the intracellular lipids: Intracellular lipid droplets' are stained by means of Oil-Red-O (Sigma, USA). […]” for “micro-nutrients.”

Row | SMILES | Number of cells on the day of the trypsinization ([1]; Day 5, 2.7×10^6 cells replated every 5 days) | Number of cells on the day of the trypsinization ([1]; Day 10) | Number of cells on the day of the trypsinization ([1]; Day 20) | Number of cells on the day of the trypsinization ([1]; Day 25) | Content of mitochondrial DNA, M/N-ratio in % of the control ([2]; Day 0) | Content of mitochondrial DNA, M/N-ratio in % of the control ([2]; Day 5) | Content of mitochondrial DNA, M/N-ratio in % of the control ([2]; Day 10) | Content of mitochondrial DNA, M/N-ratio in % of the control ([2]; Day 15) | Content of mitochondrial DNA, M/N-ratio in % of the control ([2]; Day 20) | Content of mitochondrial DNA, M/N-ratio in % of the control ([2]; Day 25) | Lactate values in the medium in percent of the control ([3]; Day 6) | Lactate values in the medium in percent of the control ([3]; Day 10) | Lactate values in the medium in percent of the control ([3]; Day 15) | Lactate values in the medium in percent of the control ([3]; Day 20) | Lactate values in the medium in percent of the control ([3]; Day 25) | Intracellular lipids / steatotic changes, microscopic image ([4]; Day 20, Oil-Red-O, 177 nM ddC, 200 μM uridine as printed) | Survival of the HepG2-cells in the presence of ddC ([1]; uridine 200 μM, 25-day incubation) | Reduction of the mtDNA ([2]; HepG2, uridine 200 μM) | Production of lactic acid ([3]; HepG2, uridine 200 μM) | Compensation for the side effects of ddC (overall, see also Tables 1 to 3) ([4]; summary of lipid staining, cell number, mtDNA and lactate)
1 | Nc1ccn([C@H]2CC[C@@H](CO)O2)c(=O)n1 [ddC, dideoxycytidine] | 110.0 100,000s | 98.5 100,000s | 66.2 100,000s | 38.4 100,000s | 100.0% | 25.6% | 25.1% | 11.5% | 8.3% | 8.4% | 109.2% | 129.5% | 220.1% | 374.9% | 392.5% | clearly fewer cells are found, which however, are relatively large and red-colored | – | – | – | –
2 | O=c1ccn([C@@H]2O[C@H](CO)[C@@H](O)[C@H]2O)c(=O)[nH]1 [uridine] | – | – | – | – | – | – | – | – | – | – | – | – | – | – | – | – | normalizes the survival of the HepG2-cells in the presence of ddC | diminishes the reduction of the mtDNA | diminished by the uridine | can compensate for the side effects of ddC
